Measurements as given in patent publication US4150029A, “3-Aryl 2-oxazolidinones, their process of preparation and their therapeutical application” (Delalande S.A., priority 1976, dated 1979).

Columns and labels:
[1] = test system: pontogeniculo-occipital points (P.G.O.) caused by reserpine; assay: Test C: diminution in density of reserpine-induced pontogeniculo-occipital (P.G.O.) points in the cat; format: in vivo; conditions: Felis catus, po, reserpine 0.5 mg/kg, read-out: Test C 50 DE
Procedure: Diminution in the density of pontogeniculo-occipital points (P.G.O.) caused by injecting a cat with 0.5 mg/kg of reserpine, according to the mode of operation described by COSTON A. and GOURET C. in J. Pharmacol. (PARIS), (1976), 7, 409.

[2] = test system: ptosis observed one hour after an intravenous injection of reserpine; assay: Test B: antagonism of reserpine-induced ptosis in the mouse; format: in vivo; conditions: po, 1 h, p.o., reserpine 2 mg/kg i.v., read-out: Test B 50 DE
Procedure: Antagonism in relation to ptosis observed one hour after an intravenous injection (2 mg/kg) of reserpine was given to a mouse, according to the mode of operation described by GOURET C. and THOMAS J. in J. Pharmacol. (PARIS), (1973), 4, 401.

[3] = test system: generalised trembling caused by an intraperitoneal injection of dl-5-hydroxytryptophane; assay: Test A: potentiation of generalised trembling caused by dl-5-hydroxytryptophane in the mouse; format: in vivo; conditions: po; mouse, p.o.; dl-5-hydroxytryptophane 200 mg/kg i.p.; read-out: Test A 50 DE
Procedure: Potentiation in a mouse of generalised trembling caused by an intraperitoneal injection (200 mg/kg) of dl-5-hydroxytryptophane, according to the mode of operation described by GOURET C. and RAYNAUD G. in the J. Pharmacol. (PARIS), (1974), 5, 231.

Acute toxicity in mice = conditions: mouse, in vivo, po, acute toxicity, read-out: 50 DL

## O=C1OC(CO)CN1c1ccc([N+](=O)[O-])cc1 (centres unmarked) [compound 740564]
[1]
  ED50: 16 mg/kg
[2]
  ED50: 42 mg/kg
[3]
  ED50: 38 mg/kg
Acute toxicity in mice
  LD50: > 1000 mg/kg

## Cc1cccc(N2CC(CO)OC2=O)c1 (centres unmarked) [TOLOXATONE, reference compound]
[1]
  ED50: 28 mg/kg
[2]
  ED50: 50 mg/kg
[3]
  ED50: 60 mg/kg
Acute toxicity in mice
  LD50: 1850 mg/kg

## O=C1OC(CO)CN1c1ccc(OCc2ccccc2)cc1 (centres unmarked) [compound 760167, 5-hydroxymethyl 3-p-benzyloxyphenyl 2-oxazolidinone]
[1]
  ED50: 15.2 mg/kg
[2]
  ED50: 3.3 mg/kg
[3]
  ED50: 9.5 mg/kg
Acute toxicity in mice
  LD50: > 2000 mg/kg

## CCOc1ccc(N2CC(CO)OC2=O)cc1 (centres unmarked) [compound 760037]
[1]
  ED50: 5.4 mg/kg
[2]
  ED50: 40 mg/kg
[3]
  ED50: 16 mg/kg
Acute toxicity in mice
  LD50: > 2000 mg/kg

## CSc1ccc(N2CC(CO)OC2=O)cc1 (centres unmarked) [compound 760082]
[1]
  ED50: 8.4 mg/kg
[2]
  ED50: 18 mg/kg
[3]
  ED50: 22 mg/kg
Acute toxicity in mice
  LD50: > 2000 mg/kg
